The values that follow are results of earlier work, collected in patent publication US9839609B2 (priority 2009, dated 2017).

The conditions of series [1]: chronic administration.
For series [2] the following is noted: in vivo.
For series [3] the following is noted: oral, rats.

Molecules are shown by their SMILES.

`C[S+](C)[O-]` [DMSO, Dimethyl sulfoxide]: in series [1], the “dose chronically administered without any serious adverse effects” value is given as 5 g/kg daily. Besides, the “fraction of DMSO metabolized into MSM in the body” value in series [2] was “Approximately 17%”.

As to `CS(C)(=O)=O` [MSM, Methylsulfonylmethane], the LD50 entry in series [3] is listed as “approximately 17 g/kg”.
